Measured values taken from article PMC5748833, “Synthesis and Biological Evaluation of Novel Hybrid Molecules Containing Purine, Coumarin and Isoxazoline or Isoxazole Moieties” (The Open Medicinal Chemistry Journal, 2017).

Columns and labels:
[1] = Competition of the tested compounds with DMSO for hydroxyl radicals; details: 100 μM compound, Fe3+/ascorbic acid, 30 min, 37°C; 100 µM
Experimental: 2.2.2.2 Competition of the tested compounds with DMSO for hydroxyl radicals
The hydroxyl radicals generated by the Fe ^3+ /ascorbic acid system, were detected according to Nash, by the determination of formaldehyde produced from the oxidation of DMSO. The reaction mixture contained EDTA (0.1 mM), Fe ^3+ (167 μM), DMSO (33 mM) in phosphate buffer (50 mM, pH 7.4), the tested compounds (concentration 0.1mM) and ascorbic acid (10 mM). After 30 min of incubation (37°C) the reaction was stopped with CCl3COOH (17% w/v) (Table 5). Trolox was used as a standard.
Superoxide (O2^-.) anion and hydroxyl radical (^.OH) are free radical species of potential importance. In the acidic conditions of ischemic brain, O2^-. is probably protonated to give HO2^-. species. Iron released from damaged brain cells is more likely to be readily available to catalyze the generation of OH radicals. Among the ROS, the hydroxyl (^•OH) free radical is possibly the most toxic, as it reacts with a number of biological important molecules. Polyunsaturated fatty acids are found in high concentrations in the CNS, and are particularly vulnerable by free radicals. Thus, we tried to test the ability of our compounds to scavenge hydroxyl radicals. […] All the derivatives of series 13 (except of 13i) present high antioxidant activity (80-100%) which is not able to be correlated with any specific structural characteristic since all contain a coumarin, a purine and an isoxazolyl moiery. […] It seems that the overall molar configuration influences the response. However, antioxidants with hydrophilic or lipophilic character are both needed to act as radical scavengers in the aqueous phase or as chain-breaking antioxidants in biological membranes.

[2] = Inhibition of linoleic acid lipid peroxidation (AAPH); details: 100 μM compound, 37°C
Method in brief: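 Sodium linoleate oxidation in 0.05 M phosphate buffer, pH 7.4, at 37°C, initiated by AAPH, with test compounds added from DMSO stock. Conjugated diene hydroperoxide formation followed at 234 nm, with a DMSO-only control and Trolox as standard.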

soybean lipoxygenase = biological target: T1, soybean lipoxygenase (Glycine max, UniProt P08170); assay: Soybean lipoxygenase inhibition in vitro; type: biochemical; details: for IC50: read-out: LOX IC50 μΜ
T1 construct: purchased Sigma Chemical, Co. (St. Louis, MO, USA)
T1 sequence (P08170 1-839): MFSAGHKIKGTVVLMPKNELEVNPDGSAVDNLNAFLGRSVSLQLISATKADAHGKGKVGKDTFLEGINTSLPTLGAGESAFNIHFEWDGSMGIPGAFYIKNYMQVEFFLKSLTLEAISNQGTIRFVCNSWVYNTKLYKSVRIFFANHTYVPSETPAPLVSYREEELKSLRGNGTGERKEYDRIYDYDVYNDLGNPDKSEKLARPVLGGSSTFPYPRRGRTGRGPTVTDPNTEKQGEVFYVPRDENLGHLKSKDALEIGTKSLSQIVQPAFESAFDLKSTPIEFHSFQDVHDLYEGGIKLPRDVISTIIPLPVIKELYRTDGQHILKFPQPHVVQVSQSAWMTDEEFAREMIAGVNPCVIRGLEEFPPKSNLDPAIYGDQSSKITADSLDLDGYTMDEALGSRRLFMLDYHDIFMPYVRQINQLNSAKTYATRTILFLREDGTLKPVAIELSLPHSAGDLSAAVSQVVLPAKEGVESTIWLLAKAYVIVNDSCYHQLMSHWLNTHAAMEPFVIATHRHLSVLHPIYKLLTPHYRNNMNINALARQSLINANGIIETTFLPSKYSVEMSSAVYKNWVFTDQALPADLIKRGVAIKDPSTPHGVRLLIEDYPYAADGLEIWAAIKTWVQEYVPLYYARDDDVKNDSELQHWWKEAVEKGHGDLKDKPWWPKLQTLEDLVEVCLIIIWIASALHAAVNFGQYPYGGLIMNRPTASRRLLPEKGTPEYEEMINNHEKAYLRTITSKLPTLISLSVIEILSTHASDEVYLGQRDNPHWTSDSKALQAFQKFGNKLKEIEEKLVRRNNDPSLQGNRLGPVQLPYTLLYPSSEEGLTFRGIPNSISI

[3] = biological target: T2, electric eel acetylcholinesterase (eeAChE) (Electrophorus electricus, UniProt O42275); assay: biochemical; type: biochemical; details: read-out: eeAChE IC50 μΜ
T2 construct: purchased Sigma
T2 sequence (O42275 24-633): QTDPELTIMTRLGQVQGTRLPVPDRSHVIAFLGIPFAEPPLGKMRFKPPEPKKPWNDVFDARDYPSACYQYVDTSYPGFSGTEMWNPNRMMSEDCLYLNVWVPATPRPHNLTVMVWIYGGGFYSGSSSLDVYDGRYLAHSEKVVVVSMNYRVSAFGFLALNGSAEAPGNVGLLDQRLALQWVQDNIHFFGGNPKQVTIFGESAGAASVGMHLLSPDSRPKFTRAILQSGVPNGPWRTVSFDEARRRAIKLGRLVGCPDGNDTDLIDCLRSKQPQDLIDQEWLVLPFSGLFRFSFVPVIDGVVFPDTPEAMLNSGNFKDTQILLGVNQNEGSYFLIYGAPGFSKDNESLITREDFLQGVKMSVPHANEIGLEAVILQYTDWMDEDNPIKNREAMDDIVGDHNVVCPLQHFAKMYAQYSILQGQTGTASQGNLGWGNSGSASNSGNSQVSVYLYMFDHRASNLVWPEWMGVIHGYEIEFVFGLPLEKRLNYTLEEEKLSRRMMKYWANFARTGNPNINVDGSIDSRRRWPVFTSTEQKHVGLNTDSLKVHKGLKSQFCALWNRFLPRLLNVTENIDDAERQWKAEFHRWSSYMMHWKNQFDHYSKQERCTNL
Source text: (§1) 2.2.2.5 Inhibition Study on ChEs in vitro
(§2) In vitro inhibition of electric eel acetylcholinesterase (eeAChE; 463 U/mg, Sigma) and equine serum butyrylcholinesterase (esBChE; 13 U/mg, Sigma) was investigated with a 96-well plate procedure based on the classical Ellman’s spectrophotometric test, as already described.

[4] = biological target: T3, equine serum butyrylcholinesterase (esBChE) (Equus caballus, UniProt P81908); assay: Inhibition of esBChE (Ellman's test); type: biochemical; details: read-out: esBChE % inhibn. @ 10 μΜ
T3 construct: purchased Sigma; host or cells: equine serum
T3 sequence (P81908 whole entry): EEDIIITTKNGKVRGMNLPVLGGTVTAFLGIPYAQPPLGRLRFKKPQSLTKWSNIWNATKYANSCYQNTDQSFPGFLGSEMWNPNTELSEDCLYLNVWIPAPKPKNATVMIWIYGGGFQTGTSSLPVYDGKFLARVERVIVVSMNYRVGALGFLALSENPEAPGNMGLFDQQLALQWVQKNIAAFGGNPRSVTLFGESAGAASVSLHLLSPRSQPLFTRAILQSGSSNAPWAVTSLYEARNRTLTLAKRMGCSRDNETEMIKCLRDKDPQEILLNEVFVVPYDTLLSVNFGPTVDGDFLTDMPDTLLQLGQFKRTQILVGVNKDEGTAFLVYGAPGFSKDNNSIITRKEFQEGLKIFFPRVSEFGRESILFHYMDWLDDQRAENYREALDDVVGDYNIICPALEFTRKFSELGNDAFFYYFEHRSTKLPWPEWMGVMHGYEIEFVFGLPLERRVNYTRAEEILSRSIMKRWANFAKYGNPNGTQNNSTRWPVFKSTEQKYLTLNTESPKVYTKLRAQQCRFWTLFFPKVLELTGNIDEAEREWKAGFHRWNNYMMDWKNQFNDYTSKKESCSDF
Source text: as §1, §2

Row | SMILES | ∙ΟΗ % @ 100μΜ (hydroxyl radical scavenging, percent inhibition of formaldehyde production) [1] | LP % @ 100μΜ (inhibition of lipid peroxidation) [2] | %LOX @ 100μΜ (soybean lipoxygenase; 100 μM compound) | IC50 [3] | inhibition at 10 µM [4] | IC50 (soybean lipoxygenase)
1 | Cc1cc(=O)oc2ccc(OCC3=NOC(Cn4cnc5c(Cl)ncnc54)C3)cc12 (stereo not drawn) [11b] | did not present any activity and no | no | no | 5.9 µM | 8% | –
2 | O=c1cc(OCc2cc(Cn3cnc4c(N5CCOCC5)ncnc43)no2)c2ccccc2o1 [13i] | did not present any activity and no | 74% | – | 5 µM | 18% | 76 µM
3 | O=c1cc(OCC2CC(Cn3cnc4c(N5CCCCC5)ncnc43)=NO2)c2ccccc2o1 (stereo not drawn) [4f] | did not present any activity and no | 62% | – | 1.4 µM | 36% | 53 µM
